Values after ≈ are worked out from the molar mass of the structure shown.
Experiments:
Assay type in all cases: functional
Penicillium chrysogenum [1] = experiment: Antifungal activity against Penicillium chrysogenum MTCC 161 after 24 hr by broth dilution method; details: MTCC 161, 24 h
Bacillus pumilus [2] = experiment: Antibacterial activity against Bacillus pumilus MTCC 1456 at 200 ug/ml after 18 hr by cup-plate method; details: MTCC 1456, 18 h, read-out: DIZ
Escherichia coli = experiment: Antibacterial activity against Escherichia coli MTCC 1573 at 100 ug/ml after 18 hr by cup-plate method; details: MTCC 1573, 18 h, read-out: DIZ
Bacillus pumilus [3] = experiment: Antibacterial activity against Bacillus pumilus MTCC 1456 at 1000 ug/ml after 18 hr by cup-plate method; details: MTCC 1456, 18 h, read-out: DIZ
Bacillus subtilis [4] = experiment: Antibacterial activity against Bacillus subtilis MTCC 441 after 24 hr by broth dilution method; details: MTCC 441, 24 h
Bacillus pumilus [5] = experiment: Antibacterial activity against Bacillus pumilus MTCC 1456 at 1500 ug/ml after 18 hr by cup-plate method; details: MTCC 1456, 18 h, read-out: DIZ
Aspergillus niger [6] = experiment: Antifungal activity against Aspergillus niger MTCC 2546 at 1500 ug/ml after 18 hr by cup-plate method; details: MTCC 2546, 18 h, read-out: DIZ
Pseudomonas aeruginosa [7] = experiment: Antibacterial activity against Pseudomonas aeruginosa MTCC 424 at 1500 ug/ml after 18 hr by cup-plate method; details: MTCC 424, 18 h, read-out: DIZ
Pseudomonas aeruginosa [8] = experiment: Antibacterial activity against Pseudomonas aeruginosa MTCC 424 at 500 ug/ml after 18 hr by cup-plate method; details: MTCC 424, 18 h, read-out: DIZ
Bacillus subtilis [9] = experiment: Antibacterial activity against Bacillus subtilis MTCC 441 at 1500 ug/ml after 18 hr by cup plate method; details: MTCC 441, 18 h, read-out: DIZ
Micrococcus luteus [10] = experiment: Antibacterial activity against Micrococcus luteus MTCC 1538 at 100 ug/ml after 18 hr by cup-plate method; details: MTCC 1538, 18 h, read-out: DIZ
Micrococcus luteus [11] = experiment: Antibacterial activity against Micrococcus luteus MTCC 1538 at 500 ug/ml after 18 hr by cup-plate method; details: MTCC 1538, 18 h, read-out: DIZ
Aspergillus niger [12] = experiment: Antifungal activity against Aspergillus niger MTCC 2546 at 100 ug/ml after 18 hr by cup-plate method; details: MTCC 2546, 18 h, read-out: DIZ
Pseudomonas fluorescens [13] = experiment: Antibacterial activity against Pseudomonas fluorescens MTCC 2421 after 24 hr by broth dilution method; details: MTCC 2421, 24 h
Aspergillus niger [14] = experiment: Antifungal activity against Aspergillus niger MTCC 2546 after 24 hr by broth dilution method; details: MTCC 2546, 24 h
Micrococcus luteus [15] = experiment: Antibacterial activity against Micrococcus luteus MTCC 1538 at 200 ug/ml after 18 hr by cup-plate method; details: MTCC 1538, 18 h, read-out: DIZ
Pseudomonas fluorescens [16] = experiment: Antibacterial activity against Pseudomonas fluorescens MTCC 2421 at 1500 ug/ml after 18 hr by cup-plate method; details: MTCC 2421, 18 h, read-out: DIZ
Staphylococcus aureus [17] = experiment: Antibacterial activity against Staphylococcus aureus MTCC 1430 after 24 hr by broth dilution method; details: MTCC 1430, 24 h
Bacillus subtilis [18] = experiment: Antibacterial activity against Bacillus subtilis MTCC 441 at 500 ug/ml after 18 hr by cup plate method; details: MTCC 441, 18 h, read-out: DIZ
Bacillus pumilus [19] = experiment: Antibacterial activity against Bacillus pumilus MTCC 1456 at 500 ug/ml after 18 hr by cup-plate method; details: MTCC 1456, 18 h, read-out: DIZ
Staphylococcus aureus [20] = experiment: Antibacterial activity against Staphylococcus aureus MTCC 1430 at 500 ug/ml after 18 hr by cup-plate method; details: MTCC 1430, 18 h, read-out: DIZ
Penicillium chrysogenum [21] = experiment: Antifungal activity against Penicillium chrysogenum MTCC 161 at 1000 ug/ml after 18 hr by cup-plate method; details: MTCC 161, 18 h, read-out: DIZ
Bacillus subtilis [22] = experiment: Antibacterial activity against Bacillus subtilis MTCC 441 at 1000 ug/ml after 18 hr by cup plate method; details: MTCC 441, 18 h, read-out: DIZ
Penicillium chrysogenum [23] = experiment: Antifungal activity against Penicillium chrysogenum MTCC 161 at 1500 ug/ml after 18 hr by cup-plate method; details: MTCC 161, 18 h, read-out: DIZ
Pseudomonas aeruginosa [24] = experiment: Antibacterial activity against Pseudomonas aeruginosa MTCC 424 at 200 ug/ml after 18 hr by cup-plate method; details: MTCC 424, 18 h, read-out: DIZ
Aspergillus niger [25] = experiment: Antifungal activity against Aspergillus niger MTCC 2546 at 200 ug/ml after 18 hr by cup-plate method; details: MTCC 2546, 18 h, read-out: DIZ
Aspergillus niger [26] = experiment: Antifungal activity against Aspergillus niger MTCC 2546 at 1000 ug/ml after 18 hr by cup-plate method; details: MTCC 2546, 18 h, read-out: DIZ

SMILES: O=c1c(/C=N/c2nc[nH]n2)coc2ccccc12
- MIC (Penicillium chrysogenum [1]): 200 µg/mL (≈ 833 µM)
- zone of inhibition at 200 µg/mL (Bacillus pumilus [2]): 16 mm
- zone of inhibition at 100 µg/mL (Escherichia coli): 13 mm
- zone of inhibition at 1000 µg/mL (Bacillus pumilus [3]): 19 mm
- MIC (Bacillus subtilis [4]): 400 µg/mL (≈ 1670 µM)
- zone of inhibition at 1500 µg/mL (Bacillus pumilus [5]): 21 mm
- zone of inhibition at 1500 µg/mL (Aspergillus niger [6]): 22 mm
- zone of inhibition at 1500 µg/mL (Pseudomonas aeruginosa [7]): 20 mm
- zone of inhibition at 500 µg/mL (Pseudomonas aeruginosa [8]): 16 mm
- zone of inhibition at 1500 µg/mL (Bacillus subtilis [9]): 20 mm
- zone of inhibition at 100 µg/mL (Micrococcus luteus [10]): 11 mm
- zone of inhibition at 500 µg/mL (Micrococcus luteus [11]): 16 mm
- zone of inhibition at 100 µg/mL (Aspergillus niger [12]): 16 mm
- MIC (Pseudomonas fluorescens [13]): 200 µg/mL (≈ 833 µM)
- MIC (Aspergillus niger [14]): 200 µg/mL (≈ 833 µM)
- zone of inhibition at 200 µg/mL (Micrococcus luteus [15]): 15 mm
- zone of inhibition at 1500 µg/mL (Pseudomonas fluorescens [16]): 20 mm
- MIC (Staphylococcus aureus [17]): 400 µg/mL (≈ 1670 µM)
- zone of inhibition at 500 µg/mL (Bacillus subtilis [18]): 17 mm
- zone of inhibition at 500 µg/mL (Bacillus pumilus [19]): 17 mm
- zone of inhibition at 500 µg/mL (Staphylococcus aureus [20]): 14 mm
- zone of inhibition at 1000 µg/mL (Penicillium chrysogenum [21]): 20 mm
- zone of inhibition at 1000 µg/mL (Bacillus subtilis [22]): 18 mm
- zone of inhibition at 1500 µg/mL (Penicillium chrysogenum [23]): 22 mm
- zone of inhibition at 200 µg/mL (Pseudomonas aeruginosa [24]): 15 mm
- zone of inhibition at 200 µg/mL (Aspergillus niger [25]): 18 mm
- zone of inhibition at 1000 µg/mL (Aspergillus niger [26]): 20 mm

Reference: ChEMBL document CHEMBL3045835, “Comparative study of conventional and microwave-assisted synthesis of some Schiff bases and their potential as antimicrobial agents” (2012)
